Measurements taken from US20230121313A1 (priority 2019, published 2023).
Where a name gives a salt, the structure may show the parent alone.

Experiments:
[1] = test system: glutamate NMDA receptor; settings: cited from earlier work
[2] = test system: subjects with MDD at imminent risk for suicide; assay: MADRS suicide item, Study […]2001; format: in vivo, human; settings: 84 mg
Description: • a. Changes from baseline to Day 2 and Day 25 for the MADRS total score • b. Changes from baseline to Day 1 4-hours postdose, Day 2 and Day 25 for the MADRS Suicide Item • c. Changes from baseline to Day 1 4-hours postdose, Day 2, and Day 25 for the clinical global judgment of suicide risk from the Suicide Ideation and Behavior Assessment Tool (SIBAT) • d. Sustained response (Onset of Clinical Response) defined as at least 50% reduction from baseline in MADRS total score with onset on Day 1 that is maintained through the end of the double-blind phase (Day 25) • e. Changes from baseline to Day 1 4-hours postdose, Day 2, and Day 25 for the Beck Scale for Suicidal Ideation (BSS) • f. Changes from baseline to Day 1 4-hours postdose and Day 25 for the Beck Hopelessness Scale
Results of the change from baseline over time for the suicide item from the MADRS assessment can be found in Attachment 1.

[3] = test system: patients with treatment-resistant depression (TRD); assay: CGI-S, phase 2 dose-response study in TRD; format: in vivo, human
Protocol: (§1) Overall illness severity was assessed on the Clinical Global Impression of Severity (CGI-S) scale (Guy, “ECDEU Assessment Manual for Psychopharmacology-Revised (DHEW Publ No ADM 76-338)”, Rockville, Md.: U.S. Department of Health, Education, and Welfare, Public Health Service, Alcohol, Drug Abuse, and Mental Health Administration, NIMH Psychopharmacology Research Branch, Division of Extramural Research Programs; 1976, pp 218-222). Participants assessed their severity of anxiety on the Generalized Anxiety Disorder 7-item (GADS-7) Scale (See, Tables 157 and 158). See, Spitzer, “A brief measure for assessing generalized anxiety disorder—the GAD-7”, Arch. Intern. Med., 2006, 166(10):1092-1097.

[4] = test system: patients with treatment-resistant depression (TRD); assay: GAD-7, phase 2 dose-response study in TRD; format: in vivo, human
Protocol: as §1

[5] = test system: patients with treatment-resistant depression (TRD); assay: CADSS, phase 2 dose-response study in TRD; format: in vivo, human
Protocol: Adverse events were monitored throughout the study. Other safety assessments (i.e., laboratory tests, vital signs, physical examination) were performed at pre-specified time points. Vital signs, the Clinician Administered Dissociative States Scale (CADSS; Bremner, “Measurement of dissociative states with the clinician-administered dissociative states scale (CADSS)”, J. Traumatic Stress, 1998, 11(1):125-136), and the 4-item positive symptom subscale from the Brief Psychiatric Rating Scale (BPRS; Overall, “The Brief Psychiatric Rating Scale. Psychological Reports”, 1962, 10:799-812) were assessed pre-dose, at 40 minutes, and 2 hours post-dose.

[6] = Solubility of esketamine HCl; settings: for solubility: pH 4.5, aqueous buffer
Protocol: The clinical investigational product is an aqueous solution of the drug substance, esketamine hydrochloride (HCl). This formulation is administered intranasally to patients using a dual nasal spray device, which delivers one spray into each nostril. […] The formulation was stored at 37° C. for stability reasons until dosing.

## CN[C@]1(c2ccccc2Cl)CCCCC1=O [esketamine, (S)-2-(2-chlorophenyl)-2-(methylamino)cyclohexanone]
[1]
  Affinity for the glutamate NMDA receptor in vitro relative to R-ketamine: 3 to 4 fold
[2]; Day 1 (DB): 4 H, LOCF, N 35
  MADRS suicide item (Suicidal Thoughts), Med: 2.0
  MADRS suicide item, change from baseline, Med: −3.0
[2]; Day 1(DB): 4 H, N 35
  MADRS suicide item (Suicidal Thoughts), Med: 2.0
  MADRS suicide item, change from baseline, Med: −3.0
[2]; Day 2(DB) LOCF, N 35
  MADRS suicide item (Suicidal Thoughts), Med: 2.0
  MADRS suicide item, change from baseline, Med: −3.0
[2]; Day 2(DB), N 35
  MADRS suicide item (Suicidal Thoughts), Med: 2.0
  MADRS suicide item, change from baseline, Med: −3.0
[2]; Day 3(DB) LOCF, N 35
  MADRS suicide item (Suicidal Thoughts), Med: 2.0
  MADRS suicide item, change from baseline, Med: −4.0
[2]; Day 3(DB), N 32
  MADRS suicide item (Suicidal Thoughts), Med: 2.0
  MADRS suicide item, change from baseline, Med: −4.0
[2]; Day 4(DB) LOCF, N 35
  MADRS suicide item (Suicidal Thoughts), Med: 1.0
  MADRS suicide item, change from baseline, Med: −4.0
[2]; Day 4(DB), N 24
  MADRS suicide item (Suicidal Thoughts), Med: 1.0
  MADRS suicide item, change from baseline, Med: −4.0
[2]; Day 5(DB) LOCF, N 35
  MADRS suicide item (Suicidal Thoughts), Med: 1.0
  MADRS suicide item, change from baseline, Med: −4.0
[2]; Day 5(DB), N 21
  MADRS suicide item (Suicidal Thoughts), Med: 0.0
  MADRS suicide item, change from baseline, Med: −4.0
[2]; Day 8(DB) LOCF, N 35
  MADRS suicide item (Suicidal Thoughts), Med: 1.0
  MADRS suicide item, change from baseline, Med: −4.0
[2]; Day 8(DB), N 31
  MADRS suicide item (Suicidal Thoughts), Med: 1.0
  MADRS suicide item, change from baseline, Med: −4.0
[2]; Day 11(DB) LOCF, N 35
  MADRS suicide item (Suicidal Thoughts), Med: 1.0
  MADRS suicide item, change from baseline, Med: −4.0
[2]; Day 11(DB), N 25
  MADRS suicide item (Suicidal Thoughts), Med: 0.0
  MADRS suicide item, change from baseline, Med: −4.0
[2]; Day 15(DB) LOCF, N 35
  MADRS suicide item (Suicidal Thoughts), Med: 1.0
  MADRS suicide item, change from baseline, Med: −4.0
[2]; Day 15(DB), N 29
  MADRS suicide item (Suicidal Thoughts), Med: 1.0
  MADRS suicide item, change from baseline, Med: −4.0
[2]; Day 18(DB) LOCF, N 35
  MADRS suicide item (Suicidal Thoughts), Med: 1.0
  MADRS suicide item, change from baseline, Med: −4.0
[2]; Day 18(DB), N 23
  MADRS suicide item (Suicidal Thoughts), Med: 1.0
  MADRS suicide item, change from baseline, Med: −4.0
[2]; Day 22(DB) LOCF, N 35
  MADRS suicide item (Suicidal Thoughts), Med: 0.0
  MADRS suicide item, change from baseline, Med: −4.0
[2]; Day 22(DB), N 28
  MADRS suicide item (Suicidal Thoughts), Med: 0.0
  MADRS suicide item, change from baseline, Med: −4.0
[2]; Day 25(DB): 4 H, N 24
  MADRS suicide item (Suicidal Thoughts), Med: 0.0
  MADRS suicide item, change from baseline, Med: −4.5
[2]; Day 25(DB): Predose LOCF, N 35
  MADRS suicide item (Suicidal Thoughts), Med: 0.0
  MADRS suicide item, change from baseline, Med: −4.0
[2]; Day 25(DB): Predose, N 24
  MADRS suicide item (Suicidal Thoughts), Med: 0.0
  MADRS suicide item, change from baseline, Med: −4.5
[2]; Day 32(FU) LOCF, N 26
  MADRS suicide item (Suicidal Thoughts), Med: 0.0
  MADRS suicide item, change from baseline, Med: −4.0
[2]; Day 32(FU), N 26
  MADRS suicide item (Suicidal Thoughts), Med: 0.0
  MADRS suicide item, change from baseline, Med: −4.0
[2]; Day 39(FU) LOCF, N 27
  MADRS suicide item (Suicidal Thoughts), Med: 0.0
  MADRS suicide item, change from baseline, Med: −5.0
[2]; Day 39(FU), N 26
  MADRS suicide item (Suicidal Thoughts), Med: 0.0
  MADRS suicide item, change from baseline, Med: −5.0
[2]; Day 46(FU) LOCF, N 27
  MADRS suicide item (Suicidal Thoughts), Med: 0.0
  MADRS suicide item, change from baseline, Med: −4.0
[2]; Day 46(FU), N 25
  MADRS suicide item (Suicidal Thoughts), Med: 0.0
  MADRS suicide item, change from baseline, Med: −4.0
[2]; Day 53(FU) LOCF, N 27
  MADRS suicide item (Suicidal Thoughts), Med: 0.0
  MADRS suicide item, change from baseline, Med: −4.0
[2]; Day 53(FU), N 24
  MADRS suicide item (Suicidal Thoughts), Med: 0.0
  MADRS suicide item, change from baseline, Med: −5.0
[2]; Day 67(FU) LOCF, N 27
  MADRS suicide item (Suicidal Thoughts), Med: 0.0
  MADRS suicide item, change from baseline, Med: −4.0
[2]; Day 67(FU), N 26
  MADRS suicide item (Suicidal Thoughts), Med: 0.0
  MADRS suicide item, change from baseline, Med: −4.0
[2]; Day 81(FU), N 24
  MADRS suicide item (Suicidal Thoughts), Med: 0.0
  MADRS suicide item, change from baseline, Med: −5.0
[2]; End Point(DB), N 35
  MADRS suicide item (Suicidal Thoughts), Med: 0.0
  MADRS suicide item, change from baseline, Med: −4.0
[2]; End Point(FU), N 27
  MADRS suicide item (Suicidal Thoughts), Med: 0.0
  MADRS suicide item, change from baseline, Med: −5.0
[3]; Period 1, 28 mg
  CGI-S Median (Range): 4.0 (3, 5)
  CGI-S Median Change (Range) from baseline to end point: −1.0 (−2, 1)
[3]; Period 1, 56 mg
  CGI-S Median (Range): 4.0 (1, 5)
  CGI-S Median Change (Range) from baseline to end point: −1.0 (−3, 0)
[3]; Period 1, 84 mg
  CGI-S Median (Range): 4.0 (1, 6)
  CGI-S Median Change (Range) from baseline to end point: −0.5 (−4, 0)
[3]; Period 2, 28 mg
  CGI-S Median (Range): 4.0 (3, 5)
  CGI-S Median Change (Range) from baseline to end point: −1.0 (−1, 0)
[3]; Period 2, 56 mg
  CGI-S Median (Range): 5.0 (4, 6)
  CGI-S Median Change (Range) from baseline to end point: −1.0 (−2, 0)
[3]; Period 2, 84 mg
  CGI-S Median (Range): 4.0 (3, 5)
  CGI-S Median Change (Range) from baseline to end point: −1.0 (−2, 0)
[4]; Period 1, 28 mg
  GAD-7 LS mean difference from placebo (SE): −0.21 (1.461)
  GAD-7 change from baseline to end point, LS mean (SE): −1.5 (1.34)
[4]; Period 1, 56 mg
  GAD-7 LS mean difference from placebo (SE): −1.40 (1.478)
  GAD-7 change from baseline to end point, LS mean (SE): −3.1 (1.34)
[4]; Period 1, 84 mg
  GAD-7 LS mean difference from placebo (SE): −3.44 (1.414)
  GAD-7 change from baseline to end point, LS mean (SE): −5.1 (1.30)
[4]; Period 2, 28 mg
  GAD-7 LS mean difference from placebo (SE): −2.02 (1.089)
  GAD-7 change from baseline to end point, LS mean (SE): −1.6 (0.87)
[4]; Period 2, 56 mg
  GAD-7 LS mean difference from placebo (SE): 0.60 (1.033)
  GAD-7 change from baseline to end point, LS mean (SE): 1.0 (0.98)
[4]; Period 2, 84 mg
  GAD-7 LS mean difference from placebo (SE): −1.25 (1.205)
  GAD-7 change from baseline to end point, LS mean (SE): −0.9 (1.02)
[5]
  CADSS perceptual changes/dissociative symptoms resolved by: ≤ 2 h
  CADSS perceptual changes/dissociative symptoms: time of peak: 30 to 40 min

## CN[C@]1(c2ccccc2Cl)CCCCC1=O [esketamine HCl, (S)-2-(2-chlorophenyl)-2-(methylamino)cyclohexanone hydrochloride]
[6]; aqueous solution
  solubility: 207 mg/mL
[6]; room temperature, pH 4.5, factor 1.15
  Maximum solubility expressed as esketamine base: 180 mg esketamine base/mL
[6]; water
  solubility: 180 mg/mL
